Reference: patent US12551532B2, “Long-acting amylin receptor agonists and uses thereof” (Eli Lilly and Company, priority 2021, dated 2026)
Starred links: 1 amine or outer side, 2 acyl side, 3 side chain; linkers in the order of their positions; H or OH if unused. Positions of bridges follow the written chain, without caps; N, C: chain ends. Non-standard residues stand in square brackets, D forms with d. Residues, ends and D or L forms follow the SMILES beside them. Groups on a side chain read outwards from the residue. *: point of attachment. C20 diacid = O=C(O)CCCCCCCCCCCCCCCCCCC(=O)*; γGlu = O=C(O)[C@H](CCC(=O)[*:2])N[*:1]; αMeL = CC(C)C[C@](C)(N)C(=O)O; Orn = NCCC[C@H](N)C(=O)O; CH2 = C([*:1])[*:2]

Columns and labels:
[1] = tested on: pre-existing antibodies (ADA) in normal human serum; experiment: Pre-existing reactivity (ACE assay format); details: >50 donors; treatment-naive normal human serum
Experimental: This assay assesses the presence of pre-existing antibodies (ADA) against the tested molecules in treatment-naive normal human serum (NHS). Diluted NHS is incubated overnight on a Pierce Streptavidin plate coated with biotinylated tested molecules. On the following day, the captured binding proteins are acid eluted, hard-coated to a Mesoscale (MSD) plate, and detected with a combination of biotin-labeled molecule and ruthenium-labeled streptavidin. If anti-drug antibodies are present, they will bind the labeled drug and the resulting signal is referred to as Tier 1 signal (expressed as electrochemiluminescence). This signal is confirmed in Tier 2 by adding excess unlabeled tested molecule in the detection step, which results in the suppression of the Tier 1 signal. The presence of pre-existing anti-drug antibodies is expressed as magnitude of the 90th percentile of Tier 2 inhibition. The 90th percentile of Tier 2 inhibition, is a statistical tool to assess the magnitude of specificity of Tier 1 reactivity. This 90th percentile is used to rank molecules in terms of ADA risk.

[2] = molecular target: T1, human calcitonin receptor (hCTR) (Homo sapiens, UniProt P30988); experiment: hCTR competitive radioligand binding filter assay (125I-hCT); details: ± SE; membranes of hCTR overexpressing cells
T1 construct: expressed in transfected cells; host or cells: membranes of UM-UC-3 (UMUC3) cells stably expressing human CTa
T1 sequence (P30988 25-474): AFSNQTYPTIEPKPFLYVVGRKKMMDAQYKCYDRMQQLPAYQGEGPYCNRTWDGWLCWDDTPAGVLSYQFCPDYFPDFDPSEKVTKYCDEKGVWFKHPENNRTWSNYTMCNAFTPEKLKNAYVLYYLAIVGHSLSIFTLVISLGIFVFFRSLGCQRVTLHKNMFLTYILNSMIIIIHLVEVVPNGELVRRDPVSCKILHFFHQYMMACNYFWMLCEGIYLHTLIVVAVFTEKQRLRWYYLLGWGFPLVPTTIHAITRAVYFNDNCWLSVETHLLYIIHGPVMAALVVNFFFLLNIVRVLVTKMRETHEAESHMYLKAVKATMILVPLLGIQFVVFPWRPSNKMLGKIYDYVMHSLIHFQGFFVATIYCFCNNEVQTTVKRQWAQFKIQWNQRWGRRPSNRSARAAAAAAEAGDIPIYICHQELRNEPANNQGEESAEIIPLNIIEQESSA
Experimental: The equilibrium dissociation constants (Kd) for the various receptor/radioligand interactions are determined from saturation binding analysis using the same reagents and buffers as described below for compound testing.
The receptor binding affinity (Ki) of rAMY, hCT, and hAMY agonist peptides on hCTR membranes is determined from a competitive radioligand binding filter assay.

human CT receptors = molecular target: T2, human CT receptors (Homo sapiens, UniProt P30988); experiment: hCTR cAMP functional activity (HTRF); format: cell-based; details: ±SE; UMUC3 cells overexpressing hCTR; relative EC50
T2 construct: expressed in transfected cells
T2 sequence (P30988 25-474): T1 sequence (P30988 25-474)
Outline: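 UM-UC-3 bladder cells stably overexpressing human CT receptor, 1200 cells/well, exposed to peptides in 1:3 dilution series for 1 h at room temperature. Intracellular cAMP measured by HTRF after 60 min lysis/detection, converted to pmol/well from a per-experiment cAMP standard curve.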

human dendritic cells = format: cell-based
Experimental: MAPPS profiles the MHC-II presented peptides on human dendritic cells treated with tested molecules. CD14+ cells, isolated from the PBMCs of normal human donors, are cultured and differentiated into immature DCs by incubation with IL-4 and GM-CSF. On day 4, culture media is replaced with fresh media containing tested molecules. On day 5, LPS is added to transform the cells into mature DCs. On day 6, cells are lysed in RIPA buffer with protease inhibitors. Immunoprecipitation of MHC-II complexes are performed using biotinylated anti-MHC-II antibody coupled to streptavidin beads. The bound complex is eluted and filtered. The isolated MHC-II peptides are analyzed by a mass spectrometer. Peptide identifications are generated by an internal proteomics pipeline using search algorithms with no enzyme and a bovine/human database with test sequences appended to the database. A KNIME workflow is used to process the identification files from the samples. Peptides identified from the test articles are aligned against the parent sequence of the test molecule. The output is used to determine the percentage of donors displaying MHC-II peptides from regions of the test molecule. Compound II, Compound IV, Compound VI, Compound VIII, a compound representative of U.S. Pat. No. 9,023,789 (hereinafter “Compound '789”), and Pramlintide are tested in the MAPPs assay.

Pre-existing Reactivity 90th percentile T2 inhibition [1]: 51.4% | Ki [2]: 0.927 ± 0.12 µM | EC50 (human CT receptors): 0.00969 ± 0.00201 µM | MAPPS Assay donors displayed peptides (human dendritic cells): no peptides | MAPPS Assay immunogenicity risk (human dendritic cells): Low Risk
Structure (SMILES): CC[C@H](C)[C@H](NC(=O)[C@@H]1CCCN1C(=O)CNC(=O)[C@H](Cc1ccccc1)NC(=O)[C@H](CC(N)=O)NC(=O)[C@H](Cc1c[nH]cn1)NC(=O)[C@H](CO)NC(=O)[C@H](CO)NC(=O)[C@H](CCCNC(=N)N)NC(=O)[C@@H](NC(=O)[C@H](CC(C)C)NC(=O)[C@H](Cc1ccccc1)NC(=O)[C@H](CCC(=O)O)NC(=O)[C@H](C)NC(=O)[C@](C)(CC(C)C)NC(=O)[C@H](CCCN)NC(=O)CNC(=O)[C@@H](NC(=O)[C@H](C)NC(=O)[C@@H]1CSCSC[C@H](NC(=O)[C@@H](N)CCCCNC(=O)CC[C@H](NC(=O)CC[C@H](NC(=O)CCCCCCCCCCCCCCCCCCC(=O)O)C(=O)O)C(=O)O)C(=O)N[C@@H](CCC(=O)O)C(=O)N[C@@H]([C@@H](C)O)C(=O)N[C@@H](C)C(=O)N[C@@H]([C@@H](C)O)C(=O)N1)[C@@H](C)O)C(C)C)C(=O)N[C@@H](CC(C)C)C(=O)N1CCC[C@H]1C(=O)N1CCC[C@H]1C(=O)N[C@H](C(=O)N[C@@H](CCC(=O)O)C(=O)N[C@H](C(=O)NCC(=O)N[C@@H](CO)C(=O)N[C@@H](CC(N)=O)C(=O)N[C@H](C(=O)N[C@@H](Cc1ccc(O)cc1)C(N)=O)[C@@H](C)O)C(C)C)[C@@H](C)O [Compound VIII] (H-K([γGlu-γGlu-C20 diacid])CETATCATG[Orn][αMeL]AEFLVRSSHNFGPILPPTEVGSNTY-NH2; linker 2-7 via CH2)
peptides displayed on MHC-II complexes (human dendritic cells): no peptides displayed on MHC-II complexes
